Measurements taken from ChEMBL document CHEMBL1145308 (Bioorg Med Chem Lett, 2006).

How the values were obtained:
in vitro [1] = conditions: human, microsomes, CL
Description: Intrinsic clearance in human microsome

[2] = molecular target: T1, Sodium- and chloride-dependent glycine transporter 2 (Homo sapiens, UniProt Q9Y345); test: (§1) Inhibition of [3H]glycine uptake at GlyT2
T1 sequence (Q9Y345 whole entry): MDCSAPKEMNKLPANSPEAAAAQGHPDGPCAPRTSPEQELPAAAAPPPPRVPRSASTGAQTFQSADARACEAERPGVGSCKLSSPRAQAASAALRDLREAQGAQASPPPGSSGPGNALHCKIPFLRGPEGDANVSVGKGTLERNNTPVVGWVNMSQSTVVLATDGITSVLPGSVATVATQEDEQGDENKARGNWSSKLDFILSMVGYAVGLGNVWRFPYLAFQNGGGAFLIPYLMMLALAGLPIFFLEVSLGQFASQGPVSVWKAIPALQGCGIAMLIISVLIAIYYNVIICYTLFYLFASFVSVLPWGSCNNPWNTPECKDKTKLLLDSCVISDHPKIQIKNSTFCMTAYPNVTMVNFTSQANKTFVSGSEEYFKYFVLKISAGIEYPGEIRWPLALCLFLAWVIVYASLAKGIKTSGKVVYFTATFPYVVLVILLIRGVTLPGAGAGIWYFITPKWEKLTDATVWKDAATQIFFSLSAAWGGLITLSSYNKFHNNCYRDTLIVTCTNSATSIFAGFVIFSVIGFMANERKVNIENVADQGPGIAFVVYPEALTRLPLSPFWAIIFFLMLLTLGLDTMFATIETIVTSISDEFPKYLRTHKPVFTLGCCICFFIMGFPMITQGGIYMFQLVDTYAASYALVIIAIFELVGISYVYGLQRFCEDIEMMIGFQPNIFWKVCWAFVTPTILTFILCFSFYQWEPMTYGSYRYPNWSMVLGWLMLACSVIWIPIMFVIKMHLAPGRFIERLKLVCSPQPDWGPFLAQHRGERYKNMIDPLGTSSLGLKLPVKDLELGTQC

in vitro [3] = conditions: mouse, microsomes, CL
Description: Intrinsic clearance in mouse microsome

in vitro [4] = conditions: mouse, microsomes, Max Achievable Bioavailability
Description: Maximum achievable bioavailability in mouse microsome

in vitro [5] = conditions: human, microsomes, Max Achievable Bioavailability
Description: Maximum achievable bioavailability in human microsome

[6] = Dissociation constant, pKa of the compound; type: physicochemical
[7] = molecular target: T2, Sodium- and chloride-dependent glycine transporter 1 (Homo sapiens, UniProt P48067); test: (§2) Inhibition of [3H]glycine uptake at GlyT1
T2 sequence (P48067 whole entry): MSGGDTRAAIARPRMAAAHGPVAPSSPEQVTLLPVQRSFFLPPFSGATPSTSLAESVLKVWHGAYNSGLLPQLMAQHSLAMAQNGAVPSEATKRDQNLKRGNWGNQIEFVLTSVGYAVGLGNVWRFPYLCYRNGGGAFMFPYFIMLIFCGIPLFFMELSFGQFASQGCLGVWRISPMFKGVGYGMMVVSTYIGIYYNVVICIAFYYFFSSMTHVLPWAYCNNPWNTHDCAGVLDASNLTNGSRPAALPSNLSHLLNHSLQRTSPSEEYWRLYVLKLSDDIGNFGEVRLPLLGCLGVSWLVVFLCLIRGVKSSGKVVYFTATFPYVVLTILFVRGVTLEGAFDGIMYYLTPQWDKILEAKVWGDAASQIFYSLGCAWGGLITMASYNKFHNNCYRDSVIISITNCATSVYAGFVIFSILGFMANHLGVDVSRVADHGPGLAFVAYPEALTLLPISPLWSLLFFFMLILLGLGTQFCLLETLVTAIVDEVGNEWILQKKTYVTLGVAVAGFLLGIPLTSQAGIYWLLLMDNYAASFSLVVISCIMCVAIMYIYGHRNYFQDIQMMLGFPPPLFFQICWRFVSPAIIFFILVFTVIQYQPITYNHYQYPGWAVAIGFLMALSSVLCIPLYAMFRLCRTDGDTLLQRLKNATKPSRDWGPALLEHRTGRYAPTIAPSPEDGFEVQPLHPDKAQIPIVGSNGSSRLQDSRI

[8] = molecular target: Voltage-gated inwardly rectifying potassium channel KCNH2 (Homo sapiens, UniProt Q12809)
Chain of Voltage-gated inwardly rectifying potassium channel KCNH2 (Q12809 whole entry): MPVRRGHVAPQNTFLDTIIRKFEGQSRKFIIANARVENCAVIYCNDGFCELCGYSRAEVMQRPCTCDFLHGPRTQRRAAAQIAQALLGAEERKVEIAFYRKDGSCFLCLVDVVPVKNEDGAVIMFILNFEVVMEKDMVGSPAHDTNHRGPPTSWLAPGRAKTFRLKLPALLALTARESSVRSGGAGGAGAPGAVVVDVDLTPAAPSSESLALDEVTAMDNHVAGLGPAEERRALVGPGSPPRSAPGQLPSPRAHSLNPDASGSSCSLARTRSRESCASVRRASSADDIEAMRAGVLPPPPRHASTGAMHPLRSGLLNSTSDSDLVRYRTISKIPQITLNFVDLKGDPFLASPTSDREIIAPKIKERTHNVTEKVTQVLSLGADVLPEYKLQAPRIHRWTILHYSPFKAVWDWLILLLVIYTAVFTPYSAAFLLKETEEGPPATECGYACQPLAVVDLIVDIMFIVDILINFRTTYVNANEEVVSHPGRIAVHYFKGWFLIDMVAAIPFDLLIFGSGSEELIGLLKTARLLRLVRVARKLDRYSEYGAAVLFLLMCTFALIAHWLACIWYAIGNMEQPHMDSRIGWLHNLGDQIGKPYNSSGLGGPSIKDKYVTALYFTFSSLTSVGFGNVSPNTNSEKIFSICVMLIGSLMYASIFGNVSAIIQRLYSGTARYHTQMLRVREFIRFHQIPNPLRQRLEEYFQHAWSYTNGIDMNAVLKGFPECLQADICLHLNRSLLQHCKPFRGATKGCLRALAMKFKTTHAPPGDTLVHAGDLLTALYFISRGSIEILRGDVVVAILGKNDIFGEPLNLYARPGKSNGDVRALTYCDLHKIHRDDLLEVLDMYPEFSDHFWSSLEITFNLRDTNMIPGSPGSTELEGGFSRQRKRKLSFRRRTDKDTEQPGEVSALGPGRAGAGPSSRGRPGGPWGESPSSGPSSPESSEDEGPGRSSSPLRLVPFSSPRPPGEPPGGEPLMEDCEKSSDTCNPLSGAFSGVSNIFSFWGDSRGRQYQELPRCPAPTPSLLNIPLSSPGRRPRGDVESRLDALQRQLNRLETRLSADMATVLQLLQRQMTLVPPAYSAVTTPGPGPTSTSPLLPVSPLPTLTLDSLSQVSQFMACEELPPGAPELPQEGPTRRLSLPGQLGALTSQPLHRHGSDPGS
Description: Inhibition of hERG potassium channel expressed in CHO cells by whole cell patch clamp method

[9] = molecular target: T3, Sodium- and chloride-dependent glycine transporter 2 (Homo sapiens) (UniProt Q9Y345); test: as §1
T3 sequence (whole entry): T1 sequence (Q9Y345 whole entry)

[10] = molecular target: T4, Sodium- and chloride-dependent glycine transporter 1 (Homo sapiens) (UniProt P48067); test: as §2
T4 sequence (whole entry): T2 sequence (P48067 whole entry)

[11] = Half life in mouse; type: ADME, organism-based; conditions: in vivo
[12] = Clearance in mouse; type: ADME, organism-based; conditions: in vivo
[13] = Ratio of drug level in brain against plasma in mouse; type: ADME, organism-based; conditions: read-out: BPR
[14] = Volume of distribution in mouse; type: ADME, organism-based; conditions: in vivo, read-out: Vss
[15] = Oral bioavailability in mouse; type: ADME, organism-based; conditions: in vivo

Structure (SMILES): O=C1NCN(c2ccccc2)C12CCN(C1(c3ccccc3)CCCCC1)CC2
- microsomal CLint (in vitro [1]): 82 µL/min/mg
- EC50 [2]: > 30 µM
- microsomal CLint (in vitro [3]): 470 µL/min/mg
- Fh (in vitro [4]): 6%
- Fh (in vitro [5]): 16%

Structure (SMILES): O=C1NCC(c2ccccc2)C12CCN(C1(c3ccccc3)CCCOC1)CC2 (stereo unspecified)
- pKa [6]: 7.1
- EC50 [7]: 1.42 µM
- IC50 [8]: > 11 µM

Structure (SMILES): O=C1NCC(c2ccccc2)C12CCN(C1(c3ccccc3)CCOCC1)CC2 (stereo unspecified)
- pKa [6]: 7.71

Structure (SMILES): O=C1NCC(c2ccc(F)cc2)C12CCN(C1(c3ccc(F)cc3)CCCCCC1)CC2 (stereo unspecified)
- Activity [9]: > 30 µM
- Activity [10]: 245 nM

Structure (SMILES): Cc1cccc(C2(N3CCC4(CC3)C(=O)NCC4c3ccc(F)cc3)CCCCC2)c1 (racemic)
- EC50 [2]: > 30 µM
- EC50 [7]: 0.563 µM

Structure (SMILES): CCCC1CNC(=O)C12CCN(C1(c3ccc(F)cc3)CCCCC1)CC2 (racemic)
- microsomal CLint (in vitro [1]): 14 µL/min/mg
- microsomal CLint (in vitro [3]): 24 µL/min/mg
- Fh (in vitro [4]): 57%
- Fh (in vitro [5]): 53%

Structure (SMILES): O=C1NCC(c2ccc(F)cc2)C12CCN(C1(c3ccc(F)cc3)CCCCC1)CC2 (racemic)
- EC50 [2]: > 30 µM

Structure (SMILES): Cc1ccccc1C1(N2CCC3(CC2)C(=O)NCC3c2ccc(F)cc2)CCCCC1 (racemic)
- EC50 [2]: > 30 µM
- EC50 [7]: 0.35 µM

Structure (SMILES): O=C1NCC(c2ccc(F)cc2)C12CCN(C1(c3cccc(F)c3)CCCCC1)CC2 (racemic)
- EC50 [2]: > 30 µM
- EC50 [7]: 0.393 µM

Structure (SMILES): Cl.O=C1NCC(c2ccc(F)cc2)C12CCN(C1(c3ccsc3)CCCCC1)CC2 (racemic)
- microsomal CLint (in vitro [1]): 4 µL/min/mg
- microsomal CLint (in vitro [3]): 39 µL/min/mg
- Fh (in vitro [4]): 45%
- EC50 [7]: 0.099 µM
- Fh (in vitro [5]): 78%

Structure (SMILES): Cl.O=C1NCC(c2ccc(F)cc2)C12CCN(C1(c3cccs3)CCCCC1)CC2 (racemic)
- microsomal CLint (in vitro [1]): 9 µL/min/mg
- microsomal CLint (in vitro [3]): 80 µL/min/mg
- Fh (in vitro [4]): 28%
- Fh (in vitro [5]): 64%

Structure (SMILES): O=C1NCC(c2ccccc2)C12CCN(C1(c3ccc(Cl)cc3)CCCCC1)CC2 (single isomer, unassigned; diastereomer 1)
- EC50 [2]: > 30 µM

Structure (SMILES): O=C1NCC(c2ccccc2)C12CCN(C1(c3ccccc3)CCCCC1)CC2 (single isomer, unassigned; diastereomer 1)
- EC50 [2]: > 30 µM

Structure (SMILES): O=C1NCC(c2ccccc2)C12CCN(C1(c3cccc(F)c3)CCCCC1)CC2 (single isomer, unassigned; diastereomer 1)
- EC50 [2]: > 30 µM
- EC50 [7]: 0.423 µM

Structure (SMILES): F.O=C1NCC(c2ccc(F)cc2)C12CCN(C1(c3ccc(F)cc3)CCCCC1)CC2 (single isomer, unassigned; diastereomer 1)
- EC50 [2]: > 30 µM
- Fh (in vitro [4]): 46%
- Fh (in vitro [5]): 67%

Structure (SMILES): Cc1cccc(C2(N3CCC4(CC3)C(=O)NCC4c3ccc(F)cc3)CCCCC2)c1 (single isomer, unassigned; diastereomer 2)
- EC50 [2]: > 30 µM
- EC50 [7]: 0.949 µM

Structure (SMILES): O=C1NCC(c2ccccc2)C12CCN(C1(c3ccc(Cl)cc3)CCCCC1)CC2 (single isomer, unassigned; diastereomer 2)
- EC50 [2]: > 30 µM

Structure (SMILES): Cc1ccc(C2(N3CCC4(CC3)C(=O)NCC4c3ccccc3)CCCCC2)cc1 (single isomer, unassigned; diastereomer 2)
- EC50 [2]: > 30 µM
- EC50 [7]: 0.48 µM

Structure (SMILES): O=C1NCC(c2ccccc2)C12CCN(C1(c3ccccc3)CCCCC1)CC2 (single isomer, unassigned; diastereomer 2)
- EC50 [2]: > 30 µM

Structure (SMILES): O=C1NCC(c2ccccc2)C12CCN(C1(c3cccc(F)c3)CCCCC1)CC2 (single isomer, unassigned; diastereomer 2)
- EC50 [2]: > 30 µM
- EC50 [7]: 0.684 µM

Structure (SMILES): Cc1ccc(C2(N3CCC4(CC3)C(=O)NCC4c3ccccc3)CCCCC2)cc1 (stereo in doubt)
- EC50 [2]: > 30 µM
- EC50 [7]: 0.284 µM

Structure (SMILES): O=C1NCC(c2ccc(F)cc2)C12CCN(C1(c3cccc(OC(F)(F)F)c3)CCCCC1)CC2 (stereo in doubt)
- EC50 [7]: 16.7 µM

Structure (SMILES): O=C1NCC(c2ccc(F)cc2)C12CCN(C1(c3ccc(F)cc3)CCCCC1)CC2 (stereo in doubt)
- pKa [6]: 8.75
- EC50 [2]: > 30 µM
- Fh (in vitro [4]): 98%
- Fh (in vitro [5]): 84%
- half-life [11]: 2.8 h
- clearance [12]: 35 mL/min/kg
- Kp [13]: 3
- Vd [14]: 7.6 L/kg
- bioavailability [15]: 60%

Structure (SMILES): O=C1NCC(c2ccc(F)cc2)C12CCN(C1(c3ccsc3)CCCCC1)CC2 (stereo in doubt)
- EC50 [7]: 0.099 µM

Structure (SMILES): O=C1NCC(c2ccccc2)C12CCN(C1(c3ccccc3)CCOCC1)CC2 (stereo in doubt; form 1)
- EC50 [7]: 7.29 µM

Structure (SMILES): O=C1NCC(c2ccccc2)C12CCN(C1(c3ccccc3)CCOCC1)CC2 (stereo in doubt; form 2)
- EC50 [7]: > 30 µM
